The test has as its system TβR-I and TβR-II. Put plainly: 125I-TGF-β1 affinity labeling, NRK cells. Type of test: cell-based, rat. The conditions noted are these: 1 hr. How it is done: (B, C, D, E) Cells were treated with increasing concentrations of cholesterol in the presence (C) and absence (B, D, E) of 0.2% β-CD, as indicated. After 1 hr at 37° C., ^125I-TGF-β1 affinity labeling of TβR-I and TβR-II in cells was performed at 0° C. ^125I-TGF-β1 affinity-labeled TβR-I and TβR-II were analyzed by 7.5% SDS-PAGE and autoradiography or quantified with a PhosphoImager. A representative of a total of three analyses is shown (top). The bracket indicates the locations of ^125I-TGF-β affinity-labeled TβR-I and TβR-II. The relative intensities of ^125I-TGF-β1 affinity-labeled TβR-I and TβR-II in cells treated without cholesterol were taken as 100%. The quantitative data from three analyses is shown (bottom).
After cross-linking, cell lysates were analyzed by 7.5% SDS-PAGE and autoradiography or quantified by a PhosphoImager. For all experiments, cholesterol or cholesterol derivatives were prepared as the stock solution with a concentration of 25 mg/ml in ethanol. The final concentration of ethanol in the medium was 0.2% (by vol.).

On to `CC(C)CCC[C@@H](C)[C@H]1CC[C@H]2[C@@H]3CC=C4C[C@@H](O)CC[C@]4(C)[C@H]3CC[C@]12C` [cholesterol], for which, under “50 μg/ml”, the “increase of 125I-TGF-β1 binding to TβR-I” value is recorded as around 5.7 fold. For the same molecule, the “ratio of TβR-II/TβR-I” value (50 μg/ml, 2.0 untreated) came out at 0.35. Besides, the “effect on binding of 125I-TGF-β1 to TβR-II” value (increasing concentrations) is listed as “did not significant alter”.

Source of the values: patent US8946201B2, “Methods for inhibiting TGF-β” (Saint Louis University, priority 2007, dated 2015).
